Results taken from patent US20220282217A1, “COMPOSITIONS AND METHODS FOR PREPARING T CELL COMPOSITIONS AND USES THEREOF” (priority 2019, published 2022).
pKd: −log10 of the molar value. Where a SMILES comes first, the peptide text is derived from it.

Target: HLA-A02.01 (Homo sapiens, UniProt P04439, D140Y/D185E/D98H/E176V/E277Q/G131W/G231S/I119V/I121R/I166T/I218V/L300P/L318F/N151K/N90K/P208A/P217A/Q86G/Q94H/R138H/R169H/T345S)
Experiment: Class I MHC peptide binding affinity (displacement of radiolabeled reference peptide)
Conditions: not given
Experimental: In brief, MHCI complexes were prepared and bound to radiolabeled reference peptides. Peptides were incubated at varying concentrations with these complexes for 2 days, and the amount of remaining radiolabeled peptide bound to […] was measured using size exclusion gel-filtration.

SMILES | pKd
CC[C@H](C)[C@H](NC(=O)[C@H](CC(C)C)NC(=O)[C@H](CCC(N)=O)NC(=O)[C@@H](NC(=O)[C@@H](NC(=O)[C@@H](N)CO)[C@@H](C)O)C(C)C)C(=O)N[C@@H](CCSC)C(=O)N[C@@H](CCC(N)=O)C(=O)N[C@@H](CC(C)C)C(=O)O (H-STVQLIMQL-OH; N-terminus and C-terminus assumed) | 5.14

Same assay, conditions: EGFR T790M peptides; HLA allele A02.01; read-out: Affinity

pKd | SMILES
5.28 | CC[C@H](C)[C@H](NC(=O)[C@H](CC(C)C)NC(=O)[C@@H](N)CCC(N)=O)C(=O)N[C@@H](CCSC)C(=O)N[C@@H](CCC(N)=O)C(=O)N[C@@H](CC(C)C)C(=O)N[C@@H](CCSC)C(=O)N1CCC[C@H]1C(=O)N[C@@H](Cc1ccccc1)C(=O)NCC(=O)O (H-QLIMQLMPFG-OH; N-terminus and C-terminus assumed)
5.48 | CC[C@H](C)[C@H](NC(=O)[C@@H](N)CC(C)C)C(=O)N[C@@H](CCSC)C(=O)N[C@@H](CCC(N)=O)C(=O)N[C@@H](CC(C)C)C(=O)N[C@@H](CCSC)C(=O)N1CCC[C@H]1C(=O)N[C@@H](Cc1ccccc1)C(=O)NCC(=O)O (H-LIMQLMPFG-OH; N-terminus and C-terminus assumed)

Same assay, conditions: Observed Affinity (IC50; (nM)), allele A02.01

SMILES | IC50 [nM]
CC[C@H](C)[C@H](NC(=O)[C@H](CCCCN)NC(=O)[C@H](Cc1ccc(O)cc1)NC(=O)[C@@H](NC(=O)[C@@H](NC(=O)[C@H](CC(=O)O)NC(=O)[C@H](CO)NC(=O)[C@H](CCSC)NC(=O)[C@@H](NC(=O)[C@@H](N)Cc1ccccc1)C(C)C)[C@@H](C)O)[C@@H](C)O)C(=O)O (H-FVMSDTTYKI-OH; N-terminus and C-terminus assumed) | 62.4
CC[C@H](C)[C@H](NC(=O)[C@H](CC(C)C)NC(=O)[C@H](CCC(N)=O)NC(=O)[C@@H](NC(=O)[C@@H](NC(=O)[C@@H](N)CO)[C@@H](C)O)C(C)C)C(=O)N[C@@H](CCSC)C(=O)N[C@@H](CCC(N)=O)C(=O)N[C@@H](CC(C)C)C(=O)O (H-STVQLIMQL-OH; N-terminus and C-terminus assumed) | 8540
CC(C)C[C@H](NC(=O)[C@H](CC(=O)O)NC(=O)[C@H](CO)NC(=O)[C@H](CCC(N)=O)NC(=O)[C@H](CCC(N)=O)NC(=O)[C@@H](N)CCC(N)=O)C(=O)N[C@@H](CCC(N)=O)C(=O)N1CCC[C@H]1C(=O)N1CCC[C@H]1C(=O)N[C@@H](C)C(=O)O (H-QQQSDLQPPA-OH; N-terminus and C-terminus assumed) | 646
CC[C@H](C)[C@H](NC(=O)[C@H](CC(N)=O)NC(=O)[C@H](CCSC)NC(=O)[C@@H](N)Cc1c[nH]cn1)C(=O)N[C@@H](C)C(=O)N[C@@H](CC(N)=O)C(=O)N[C@@H](CC(C)C)C(=O)N[C@@H](CC(C)C)C(=O)NCC(=O)N[C@@H](C)C(=O)O (H-HMNIANLLGA-OH; N-terminus and C-terminus assumed) | 430
CC[C@H](C)[C@H](NC(=O)[C@@H]1CCCN1C(=O)[C@H](CC(C)C)NC(=O)[C@H](CC(C)C)NC(=O)[C@H](CCC(=O)O)NC(=O)[C@@H](N)Cc1ccccc1)C(=O)N1CCC[C@H]1C(=O)N1CCC[C@H]1C(=O)N[C@@H](CC(C)C)C(=O)O (H-FELLPIPPL-OH; N-terminus and C-terminus assumed) | 553
CC[C@H](C)[C@H](NC(=O)[C@H](CC(=O)O)NC(=O)[C@H](CC(C)C)NC(=O)[C@@H](N)CC(C)C)C(=O)N[C@@H](CC(C)C)C(=O)N[C@@H](CC(=O)O)C(=O)N[C@H](C(=O)N[C@@H](C)C(=O)NCC(=O)N[C@@H](CC(C)C)C(=O)O)[C@@H](C)O (H-LLDILDTAGL-OH; N-terminus and C-terminus assumed) | 716

Same assay, conditions: allele A02.01; read-out: Observed Affinity (IC50; (nM))

SMILES | IC50 [nM]
CSCC[C@H](N)C(=O)N[C@@H](CO)C(=O)N[C@H](C(=O)N[C@@H](CS)C(=O)N[C@@H](Cc1ccccc1)C(=O)N[C@@H](Cc1ccccc1)C(=O)N[C@@H](Cc1ccccc1)C(=O)N[C@@H](Cc1ccccc1)C(=O)N[C@@H](CO)C(=O)N[C@H](C(=O)O)C(C)C)C(C)C (H-MSVCFFFFSV-OH; N-terminus and C-terminus assumed) | 1710
CC[C@H](C)[C@H](NC(=O)[C@@H](NC(=O)[C@H](CO)NC(=O)[C@H](Cc1ccccc1)NC(=O)[C@H](Cc1ccccc1)NC(=O)[C@@H](N)Cc1ccccc1)C(C)C)C(=O)N[C@@H](Cc1ccccc1)C(=O)N[C@@H](CO)C(=O)N[C@H](C(=O)O)[C@@H](C)O (H-FFFSVIFST-OH; N-terminus and C-terminus assumed) | 4560
CC(C)C[C@H](NC(=O)[C@H](CO)NC(=O)[C@H](CC(N)=O)NC(=O)[C@H](CS)NC(=O)[C@H](CCC(=O)O)NC(=O)[C@H](Cc1c[nH]cn1)NC(=O)[C@H](CC(C)C)NC(=O)[C@@H](NC(=O)[C@H](CCC(N)=O)NC(=O)[C@@H](N)CC(C)C)C(C)C)C(=O)O | 4720
CC[C@H](C)[C@H](NC(=O)[C@H](CC(C)C)NC(=O)[C@@H]1CCCN1C(=O)[C@H](Cc1ccccc1)NC(=O)[C@H](CC(C)C)NC(=O)[C@H](CCC(=O)O)NC(=O)[C@@H]1CCCN1C(=O)CNC(=O)[C@@H](N)CCCCN)C(=O)O (H-KGPELFPLI-OH) | 101
CC(C)C[C@H](NC(=O)CNC(=O)[C@H](Cc1c[nH]c2ccccc12)NC(=O)[C@H](CC(=O)O)NC(=O)[C@H](CCCCN)NC(=O)CNC(=O)[C@H](CCC(N)=O)NC(=O)[C@@H](NC(=O)[C@@H](N)Cc1ccccc1)C(C)C)C(=O)O | 34
CC[C@H](C)[C@H](NC(=O)[C@@H]1CCCN1C(=O)[C@H](CCCNC(=N)N)NC(=O)[C@H](Cc1c[nH]cn1)NC(=O)[C@@H]1CCCN1C(=O)[C@H](CS)NC(=O)[C@H](CCCNC(=N)N)NC(=O)[C@H](CCC(=O)O)NC(=O)[C@H](CC(C)C)NC(=O)[C@@H](N)C(C)C)C(=O)O | 15300
CSCC[C@H](NC(=O)[C@H](CCCCN)NC(=O)CNC(=O)[C@H](CC(N)=O)NC(=O)[C@H](CCC(N)=O)NC(=O)[C@@H](N)Cc1ccccc1)C(=O)N[C@@H](C)C(=O)N[C@@H](CC(C)C)C(=O)N[C@@H](CO)C(=O)O [FQNGKMALS] (H-FQNGKMALS-OH; N-terminus and C-terminus assumed) | 3280
CC[C@H](C)[C@H](NC(=O)[C@H](CC(C)C)NC(=O)[C@@H]1CCCN1C(=O)[C@H](Cc1ccccc1)NC(=O)[C@H](CC(C)C)NC(=O)[C@@H](N)CCC(=O)O)C(=O)N[C@@H](Cc1ccccc1)C(=O)N1CCC[C@H]1C(=O)N[C@@H](C)C(=O)O | 13
CC[C@H](C)[C@H](NC(=O)[C@H](CC(C)C)NC(=O)[C@@H](N)CS)C(=O)N[C@H](C(=O)N[C@@H](CO)C(=O)N[C@@H](CCCNC(=N)N)C(=O)N[C@H](C(=O)N[C@@H](CC(C)C)C(=O)N[C@@H](CC(C)C)C(=O)N[C@@H](CC(C)C)C(=O)O)[C@@H](C)O)C(C)C | 2010
CC[C@H](C)[C@H](N)C(=O)N[C@H](C(=O)N[C@@H](C)C(=O)N[C@@H](Cc1ccccc1)C(=O)N[C@@H](Cc1ccccc1)C(=O)N[C@@H](Cc1ccccc1)C(=O)N[C@@H](CS)C(=O)N[C@@H](Cc1c[nH]c2ccccc12)C(=O)N[C@H](C(=O)O)[C@@H](C)CC)[C@@H](C)O (H-ITAFFFCWI-OH; N-terminus and C-terminus assumed) | 7490
CSCC[C@H](NC(=O)[C@H](CCCNC(=N)N)NC(=O)[C@H](CCCNC(=N)N)NC(=O)[C@H](Cc1ccc(O)cc1)NC(=O)[C@H](CC(=O)O)NC(=O)[C@H](Cc1c[nH]c2ccccc12)NC(=O)[C@H](CO)NC(=O)[C@H](CO)NC(=O)[C@H](CC(C)C)NC(=O)[C@@H](N)Cc1ccccc1)C(=O)O (H-FLSSWDYRRM-OH; N-terminus and C-terminus assumed) | 324
CC[C@H](C)[C@H](N)C(=O)N[C@@H](CCC(N)=O)C(=O)N[C@@H](CC(C)C)C(=O)N[C@@H](CCC(N)=O)C(=O)N[C@@H](CC(=O)O)C(=O)N[C@@H](CCCCN)C(=O)N[C@@H](Cc1ccccc1)C(=O)N[C@@H](CCC(=O)O)C(=O)N[C@@H](Cc1c[nH]cn1)C(=O)N[C@@H](CC(C)C)C(=O)O | 4270

The remaining lines, values ahead:

IC50 [nM] | SMILES
5930 | CC[C@H](C)[C@H](NC(=O)[C@H](CC(C)C)NC(=O)[C@@H](N)CCC(N)=O)C(=O)N[C@@H](CCSC)C(=O)N[C@@H](CCC(N)=O)C(=O)N[C@@H](CC(C)C)C(=O)N[C@@H](CCSC)C(=O)N1CCC[C@H]1C(=O)N[C@@H](Cc1ccccc1)C(=O)NCC(=O)O (H-QLIMQLMPFG-OH; N-terminus and C-terminus assumed)
1240 | CC(C)C[C@H](NC(=O)[C@H](CCCNC(=N)N)NC(=O)[C@@H](NC(=O)[C@@H](N)CC(C)C)C(C)C)C(=O)N[C@@H](CO)C(=O)N[C@@H](CO)C(=O)N[C@@H](CS)C(=O)N[C@H](C(=O)N1CCC[C@H]1C(=O)N[C@H](C(=O)O)C(C)C)C(C)C (H-LVRLSSCVPV-OH; N-terminus and C-terminus assumed)
114 | CC[C@H](C)[C@H](NC(=O)[C@H](CO)NC(=O)[C@H](CC(C)C)NC(=O)CN)C(=O)N[C@@H](CO)C(=O)N[C@@H](CS)C(=O)N[C@H](C(=O)N[C@H](C(=O)N[C@@H](CC(C)C)C(=O)O)[C@@H](C)O)[C@@H](C)O (H-GLSISCTTL-OH; N-terminus and C-terminus assumed)
1580 | CC[C@H](C)[C@H](NC(=O)[C@@H](N)Cc1ccccc1)C(=O)N[C@@H](CC(C)C)C(=O)N[C@@H](CCSC)C(=O)N[C@@H](CCC(=O)O)C(=O)N[C@@H](CC(C)C)C(=O)N[C@@H](CCSC)C(=O)N[C@@H](C)C(=O)NCC(=O)NCC(=O)O (H-FILMELMAGG-OH; N-terminus and C-terminus assumed)
3510 | CC[C@H](C)[C@H](NC(=O)[C@@H](N)CC(C)C)C(=O)N[C@@H](CCSC)C(=O)N[C@@H](CCC(N)=O)C(=O)N[C@@H](CC(C)C)C(=O)N[C@@H](CCSC)C(=O)N1CCC[C@H]1C(=O)N[C@@H](Cc1ccccc1)C(=O)NCC(=O)O (H-LIMQLMPFG-OH; N-terminus and C-terminus assumed)
7320 | CC[C@H](C)[C@H](N)C(=O)N[C@@H](CCSC)C(=O)N[C@@H](CO)C(=O)N[C@@H](CC(C)C)C(=O)N[C@@H](Cc1c[nH]c2ccccc12)C(=O)NCC(=O)N[C@@H](CC(C)C)C(=O)N[C@H](C(=O)N[C@@H](CO)C(=O)O)C(C)C (H-IMSLWGLVS-OH)
1370 | CC(C)C[C@H](NC(=O)[C@H](CC(C)C)NC(=O)[C@H](CC(C)C)NC(=O)[C@H](CC(=O)O)NC(=O)[C@H](CS)NC(=O)[C@H](CC(C)C)NC(=O)[C@@H]1CCCN1C(=O)[C@@H](NC(=O)[C@@H](NC(=O)[C@@H](N)CC(N)=O)C(C)C)C(C)C)C(=O)O (H-NVVPLCDLLL-OH; N-terminus and C-terminus assumed)
4730 | CC(C)C[C@H](NC(=O)[C@H](CO)NC(=O)CNC(=O)[C@H](CC(C)C)NC(=O)[C@H](CO)NC(=O)[C@H](CCCNC(=N)N)NC(=O)[C@H](Cc1c[nH]c2ccccc12)NC(=O)[C@H](CCC(N)=O)NC(=O)[C@@H](N)C(C)C)C(=O)O (H-VQWRSLGSL-OH; N-terminus and C-terminus assumed)
39 | CSCC[C@H](NC(=O)[C@H](Cc1c[nH]cn1)NC(=O)[C@@H](NC(=O)[C@H](CC(C)C)NC(=O)[C@@H](NC(=O)[C@@H]1CCCN1C(=O)[C@H](C)NC(=O)[C@H](CC(C)C)NC(=O)[C@H](C)N)[C@@H](C)O)[C@@H](C)O)C(=O)N[C@@H](CC(C)C)C(=O)O (H-ALAPTLTHML-OH; N-terminus and C-terminus assumed)
